Test results reported in PubChem BioAssay (NCI).
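Values below derive from 48-hour exposures of cells grown in 96-well plates, with endpoints linearly interpolated between the two concentrations bracketing the appropriate inhibition level. TGI denotes the concentration required for complete inhibition of growth.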

system: SN12C renal; experiment: NCI tumour cell line growth inhibition, 48 h

Row | SMILES | TGI
1 | CC(C)(C)C(=O)OCC1CCC[N+]2(C)CCCCC12 (centres undefined) | > 100 µM
2 | COCCOCc1nc(C#N)c(N)o1 | > 100 µM
3 | CN1C(=O)N/C(=C\c2ccc(S(=O)(=O)NN)cc2)C1=O | > 100 µM
4 | CN(C)Cc1cc(C(=O)/C=C/c2ccc(Cl)cc2)cc(CN(C)C)c1O | 28.1 µM
5 | O=S(=O)(c1ccccc1)n1c2cc3cccnc3nc2c2cccnc21 | > 100 µM
6 | Cc1cc(N(CCC#N)CCC#N)ccc1/C(N=Nc1ccc([N+](=O)[O-])cc1)=N\NC(=O)c1cc(Cl)ccc1C(=O)c1ccccc1 | > 100 µM
7 | CC(=O)c1c2c(cc3c1CC1(Cc4ccccc4C1=O)C3)CCC2 (centres undefined) | > 100 µM
8 | Cc1cccc(-c2nc3ccc([N+](=O)[O-])cc3c(=O)o2)c1 | > 100 µM
9 | O=C1N=c2ccccc2=C1c1c(O)[nH]c2ccccc12 | 51.5 µM
10 | NC(N)=NCCN=C(N)N | > 100 µM
11 | NC(=O)C(N)Cc1ccc(O)cn1 (centres undefined) | > 100 µM
12 | COC(=O)C(C)(NC(=O)C(CC(=O)OC(C)(C)C)NC(=O)OC(C)(C)C)c1ccccc1 (centres undefined) | > 100 µM
13 | COc1ccc(N=C2SC(=N/N=c3\sc4ccccc4n3C)SC2=Nc2ccc(OC)cc2)cc1 | > 100 µM
14 | CCOC(=O)C1=CC(C)(C(=O)OCC)Nc2c(nc(OC)n(C)c2=O)N1 (centres undefined) | > 10 µM
15 | S=C(c1c[nH]c2ccccc12)N1CCOCC1 | > 100 µM
16 | CNc1ccc(OC)cc1S(=O)(=O)c1ccccc1[N+](=O)[O-] | > 100 µM
17 | CC1(CCCO)CCCCCC(C)(CCCO)C1=O (centres undefined) | > 100 µM
18 | COC(C)(C)C1=CCC(C)CC1 (centres undefined) | > 100 µM
19 | C=C1CC(c2ccc(OCCCN3C(=O)c4ccccc4C3=O)c(OC)c2)OC1=O (centres undefined) | 25.4 µM

system: SNB-19 CNS; experiment: NCI tumour cell line growth inhibition, 48 h

Row | SMILES | TGI
20 | CC1CC(N)=Nc2ccccc2N1 (centres undefined) | > 100 µM
21 | CN(c1ccc(Cl)cc1)S(=O)(=O)c1cccc([N+](=O)[O-])c1 | > 100 µM
22 | CCC(=O)NC(Nc1cccc(F)c1C)(C(F)(F)F)C(F)(F)F | > 100 µM
23 | Cc1cc2nc3c(C#N)c(-c4ccccc4)cc(Nc4ccc(Cl)cc4)n3c2cc1C | > 100 µM
24 | CN(c1ccc(Cl)cc1)S(=O)(=O)c1ccc([N+](=O)[O-])cc1 | > 100 µM
25 | O=S1(=O)OCCOS(=O)(=O)C1F | > 100 µM
26 | O=c1[nH]c(-c2ccc3ccccc3c2)nc2ccccc12 | 51.4 µM
27 | CC(C)(C)C(=O)OCC1CCC[N+]2(C)CCCCC12 (centres undefined) | > 100 µM
28 | COCCOCc1nc(C#N)c(N)o1 | > 100 µM
29 | CN1C(=O)N/C(=C\c2ccc(S(=O)(=O)NN)cc2)C1=O | > 100 µM
30 | CN(C)Cc1cc(C(=O)/C=C/c2ccc(Cl)cc2)cc(CN(C)C)c1O | 24.1 µM
31 | O=S(=O)(c1ccccc1)n1c2cc3cccnc3nc2c2cccnc21 | > 100 µM
32 | Cc1cc(N(CCC#N)CCC#N)ccc1/C(N=Nc1ccc([N+](=O)[O-])cc1)=N\NC(=O)c1cc(Cl)ccc1C(=O)c1ccccc1 | > 100 µM
33 | CC(=O)c1c2c(cc3c1CC1(Cc4ccccc4C1=O)C3)CCC2 (centres undefined) | > 100 µM
34 | O=C1N=c2ccccc2=C1c1c(O)[nH]c2ccccc12 | 67.4 µM
35 | NC(N)=NCCN=C(N)N | > 100 µM
36 | NC(=O)C(N)Cc1ccc(O)cn1 (centres undefined) | > 100 µM
37 | COC(=O)C(C)(NC(=O)C(CC(=O)OC(C)(C)C)NC(=O)OC(C)(C)C)c1ccccc1 (centres undefined) | > 100 µM
38 | COc1ccc(N=C2SC(=N/N=c3\sc4ccccc4n3C)SC2=Nc2ccc(OC)cc2)cc1 | > 100 µM
39 | CCOC(=O)C1=CC(C)(C(=O)OCC)Nc2c(nc(OC)n(C)c2=O)N1 (centres undefined) | > 10 µM
40 | S=C(c1c[nH]c2ccccc12)N1CCOCC1 | > 100 µM
41 | CNc1ccc(OC)cc1S(=O)(=O)c1ccccc1[N+](=O)[O-] | > 100 µM
42 | CC1(CCCO)CCCCCC(C)(CCCO)C1=O (centres undefined) | > 100 µM
43 | COC(C)(C)C1=CCC(C)CC1 (centres undefined) | > 100 µM
44 | C=C1CC(c2ccc(OCCCN3C(=O)c4ccccc4C3=O)c(OC)c2)OC1=O (centres undefined) | 28 µM

system: SNB-75 CNS; experiment: NCI tumour cell line growth inhibition, 48 h

Row | SMILES | TGI
45 | CC1CC(N)=Nc2ccccc2N1 (centres undefined) | > 100 µM
46 | O=C(O)c1n[nH]nc1Cl | > 100 µM
47 | CN(c1ccc(Cl)cc1)S(=O)(=O)c1cccc([N+](=O)[O-])c1 | > 100 µM
48 | CCC(=O)NC(Nc1cccc(F)c1C)(C(F)(F)F)C(F)(F)F | > 100 µM
49 | Cc1cc2nc3c(C#N)c(-c4ccccc4)cc(Nc4ccc(Cl)cc4)n3c2cc1C | > 100 µM
50 | CN(c1ccc(Cl)cc1)S(=O)(=O)c1ccc([N+](=O)[O-])cc1 | > 100 µM
51 | O=S1(=O)OCCOS(=O)(=O)C1F | > 100 µM
52 | O=c1[nH]c(-c2ccc3ccccc3c2)nc2ccccc12 | 28.6 µM
53 | CC(C)(C)C(=O)OCC1CCC[N+]2(C)CCCCC12 (centres undefined) | > 100 µM
54 | COCCOCc1nc(C#N)c(N)o1 | > 100 µM
55 | CN1C(=O)N/C(=C\c2ccc(S(=O)(=O)NN)cc2)C1=O | > 100 µM
56 | CN(C)Cc1cc(C(=O)/C=C/c2ccc(Cl)cc2)cc(CN(C)C)c1O | 44.4 µM
57 | O=S(=O)(c1ccccc1)n1c2cc3cccnc3nc2c2cccnc21 | > 100 µM
58 | Cc1cc(N(CCC#N)CCC#N)ccc1/C(N=Nc1ccc([N+](=O)[O-])cc1)=N\NC(=O)c1cc(Cl)ccc1C(=O)c1ccccc1 | > 100 µM
59 | CC(=O)c1c2c(cc3c1CC1(Cc4ccccc4C1=O)C3)CCC2 (centres undefined) | > 100 µM
